According to ChEMBL document CHEMBL1142399, “Water-soluble pleuromutilin derivative with excellent in vitro and in vivo antibacterial activity against gram-positive pathogens” (J Med Chem, 2008):
Converted amounts (≈) assume the structure as drawn.

What was measured:
[1] = test system: Staphylococcus aureus; assay: microbe, parasite or virus in culture; conditions: KMP9
[2] = test system: Staphylococcus saccharolyticus; assay: Antibacterial activity against Staphylococcus saccharolyticus GAI 5520 by broth microdilution method; format: functional
[3] = test system: Peptostreptococcus anaerobius; assay: Antibacterial activity against Peptostreptococcus anaerobius GAI 5506 by broth microdilution method; format: functional
[4] = test system: Clostridium perfringens; assay: Antibacterial activity against Clostridium perfringens GAI 5526 by broth microdilution method; format: functional
[5] = test system: Streptococcus pneumoniae; assay: Antibacterial activity against penicillin-resistant Streptococcus pneumoniae KT2524 in mouse dosed iv 1 hr after infection; format: functional
[6] = test system: Streptococcus pneumoniae; assay: microbe, parasite or virus in culture
[7] = test system: Staphylococcus epidermidis; assay: Antibacterial activity against Staphylococcus epidermidis ATCC 12228 by broth microdilution method; format: functional
[8] = test system: Streptococcus pneumoniae; assay: microbe, parasite or virus in culture; conditions: ATCC 49619
[9] = test system: Streptococcus pneumoniae; assay: Antibacterial activity against penicillin-resistant Streptococcus pneumoniae KT2524 in mouse dosed twice iv 1 hr and 4 hrs after infection; format: functional
[10] = test system: Staphylococcus aureus; assay: microbe, parasite or virus in culture; conditions: Smith
[11] = test system: Streptococcus pneumoniae; assay: Antibacterial activity against penicillin-susceptible Streptococcus pneumoniae ATCC 49619 in mouse dosed twice iv 1 hr and 4 hrs after infection; format: functional; conditions: ATCC 49619, iv
[12] = test system: Staphylococcus aureus; assay: microbe, parasite or virus in culture
[13] = test system: Propionibacterium granulosum; assay: Antibacterial activity against Propionibacterium granulosum GAI 7414 by broth microdilution method; format: functional; conditions: Cutibacterium granulosum
[14] = test system: Staphylococcus aureus; assay: Antibacterial activity against methicillin-resistant Staphylococcus aureus KT0116 in mouse dosed iv 1 hr after infection; format: functional
[15] = test system: Moraxella catarrhalis; assay: Antibacterial activity against Moraxella catarrhalis K1209 by broth microdilution method; format: functional
[16] = test system: Enterococcus faecalis; assay: microbe, parasite or virus in culture; conditions: ATCC 29212
[17] = test system: Enterococcus faecium; assay: Antibacterial activity against vancomycin-resistant Enterococcus faecium KU1778 clinical isolate by broth microdilution method; format: functional
[18] = test system: Streptococcus intermedius; assay: Antibacterial activity against Streptococcus intermedius GAI 7416 by broth microdilution method; format: functional
[19] = test system: Staphylococcus aureus; assay: Antibacterial activity against methicillin-resistant Staphylococcus aureus KT0116 in mouse dosed twice iv 1 hr and 4 hrs after infection; format: functional
[20] = test system: Atopobium parvulum; assay: Antibacterial activity against Atopobium parvulum GAI 5542 by broth microdilution method; format: functional; conditions: Lancefieldella parvula
[21] = test system: Enterococcus faecium; assay: microbe, parasite or virus in culture; conditions: ATCC 19434
[22] = test system: Mycoplasmoides pneumoniae; assay: Antibacterial activity against Mycoplasma pneumoniae Mac by broth microdilution method; format: functional
[23] = test system: Haemophilus influenzae; assay: Antibacterial activity against Haemophilus influenzae TH13 by broth microdilution method; format: functional
[24] = test system: Cutibacterium acnes; assay: Antibacterial activity against Propionibacterium acnes GAI 5568 by broth microdilution method; format: functional
[25] = test system: Staphylococcus aureus; assay: Antibacterial activity against methicillin-susceptible Staphylococcus aureus Smith in mouse dosed iv 1 hr after infection; format: functional
[26] = test system: Staphylococcus aureus; assay: Antibacterial activity against methicillin-susceptible Staphylococcus aureus Smith in mouse dosed twice iv 1 hr and 4 hrs after infection; format: functional
[27] = Solubility in water; format: physicochemical
[28] = test system: Streptococcus pneumoniae; assay: Antibacterial activity against penicillin-susceptible Streptococcus pneumoniae ATCC 49619 in mouse dosed iv 1 hr after infection; format: functional; conditions: ATCC 49619, iv
[29] = test system: Finegoldia magna; assay: Antibacterial activity against Peptostreptococcus magnus GAI 5528 by broth microdilution method; format: functional
[30] = test system: Peptoniphilus asaccharolyticus; assay: Antibacterial activity against Peptostreptococcus asaccharolyticus GAI 5534 by broth microdilution method; format: functional
[31] = test system: Mycoplasmoides pneumoniae; assay: Antibacterial activity against Mycoplasma pneumoniae FH Liu by broth microdilution method; format: functional
[32] = test system: Staphylococcus aureus; assay: microbe, parasite or virus in culture; remark: listed apart in the source
[33] = test system: Streptococcus pneumoniae; assay: Antibacterial activity against penicillin-susceptible Streptococcus pneumoniae ATCC 6303 in mouse pulmonary infection model assessed as survival at 6.25 mg/kg, ip twice daily for 3 days; format: functional; conditions: route intraperitoneal
[34] = test system: Staphylococcus aureus; assay: Antibacterial activity against methicillin-susceptible Staphylococcus aureus Smith in po dosed mouse twice daily; format: functional
[35] = test system: Streptococcus pyogenes; assay: Antibacterial activity against Streptococcus pyogenes ATCC 12344 by broth microdilution method; format: functional

Structure (SMILES): C=C[C@]1(C)C[C@@H](OC(=O)CSC2CCN(C(=O)CCn3cnc4c(N5CCNCC5)nc(N)nc43)CC2)[C@@]2(C)C3C(=O)CC[C@@]3(CC[C@H]2C)[C@@H](C)[C@@H]1O (stereo not given in full)
- MIC [1]: 0.5 mg/L (≈ 0.666 µM)
- MIC [2]: 0.06 mg/L (≈ 0.0799 µM)
- MIC [3]: 0.032 mg/L (≈ 0.0426 µM)
- MIC [4]: 0.063 mg/L (≈ 0.0839 µM)
- ED50 [5]: 1.55 mg/kg
- MIC [6]: 0.063 mg/L (≈ 0.0839 µM)
- MIC [7]: 0.063 mg/L (≈ 0.0839 µM)
- MIC [8]: 0.063 mg/L (≈ 0.0839 µM)
- ED50 [9]: 1.88 mg/kg
- MIC [10]: 0.25 mg/L (≈ 0.333 µM)
- ED50 [11]: 1.34 mg/kg
- MIC [12]: 0.063 mg/L (≈ 0.0839 µM)
- MIC [13]: 0.016 mg/L (≈ 0.0213 µM)
- ED50 [14]: 2.15 mg/kg
- MIC [15]: 0.032 mg/L (≈ 0.0426 µM)
- MIC [16]: 64 mg/L (≈ 85.2 µM)
- MIC [17]: 0.063 mg/L (≈ 0.0839 µM)
- MIC [18]: 0.25 mg/L (≈ 0.333 µM)
- ED50 [19]: 0.91 mg/kg
- MIC [20]: 0.25 mg/L (≈ 0.333 µM)
- MIC [21]: 0.063 mg/L (≈ 0.0839 µM)
- MIC [22]: 0.008 mg/L (≈ 0.0107 µM)
- MIC [23]: 0.125 mg/L (≈ 0.166 µM)
- MIC [24]: 0.008 mg/L (≈ 0.0107 µM)
- ED50 [25]: 1.86 mg/kg
- ED50 [26]: 1.51 mg/kg
- solubility [27]: 50 mg/mL (≈ 66600 µM)
- ED50 [28]: 1.54 mg/kg
- MIC [29]: 0.063 mg/L (≈ 0.0839 µM)
- MIC [30]: 0.032 mg/L (≈ 0.0426 µM)
- MIC [31]: 0.008 mg/L (≈ 0.0107 µM)
- MIC [32]: 0.5 mg/L (≈ 0.666 µM)
- Activity [33]: 50%
- ED50 [34]: > 50 mg/kg
- MIC [35]: 0.032 mg/L (≈ 0.0426 µM)
